In patent publication US4036979A, “Compositions containing 4,5,6,7-tetrahydrobenz[b]thien-4-yl-ureas or derivatives and methods of enhancing growth rate” (American Cyanamid Company, priority 1976, dated 1977):
Values joined by “and” are separate entries in the source; they are usually repeats but may differ in a detail not shown here. Equal entries are not always repeated.

Columns and labels:
[1] = Mouse Growth Regulant Tests (12-day weight gain over controls, compound in diet); format: in vivo, CFI female mice; settings: Mus musculus, feed or water, 288 h; for change in vivo at 200 ppm: 200 ppm in diet; for change in vivo at 400 ppm: 400 ppm in diet
Experimental: CFI female mice from Carworth Farms are received when they are six weeks old. They are housed ten to a cage in air-conditioned rooms (72° F. to 76° F.) with automatically controlled lights, 14 hours on and 10 hours off. The basal diet used in these studies is Purina Laboratory Chow (see description below), which is supplied ad libitum. Water is also allowed ad libitum.
Thirteen days after arrival, the mice are weighed in groups of ten and assigned at random to the different treatments. Twelve days later the mice are weighed again and the experiment terminated. At least three cages (30 mice) of untreated controls are included in each test. Test data are provided in Tables VI, VII, VIII, and IX below wherein data are reported as percent weight gain over controls. Unless otherwise indicated in these tables, all compounds tested were dl-racemic mixtures. The following is a description of the diet to which the growth promoting compounds were added.

[2] = Growth enhancement and feed efficiency in sheep given an implant containing test compound (six weeks); format: in vivo, sheep (Wether lambs); settings: for Average 6-Week Feed/Gain per Pen, AV. / Average 6-Week Weight Gain (kg.)/Lamb, AV.: average of 6 replications; for Average 6-Week Feed/Gain per Pen / Average 6-Week Weight Gain (kg.)/Lamb: replications 1 to 6
Excerpt: To determine the effect of a 4,5,6,7-tetrahydrobenzo[b]thien-4-ylurea compound on sheep, Wether lambs are randomly allotted to pens in groups of six. The sheep are weighed and permitted food and water ad libitum. The feed is weighed daily, and uneaten feed from the previous day is collected and weighed. Test lambs receive the same unmedicated diet as control animals, but test animals receive one or more subcutaneous implants containing test compound at the base of the ear. The formulation of the implant used is given below. At the end of the six-week treatment period, the lambs are again weighed, and total feed consumed is calculated.
In these tests, six replicates of six lambs each per treatment are used and each animal receives from about 11 mg. to 105 mg. of test compound.

[3] = Growth enhancement and feed efficiency improvement in sheep fed levels of test compounds (six weeks); format: in vivo, sheep (Wether lambs); settings: for Average Daily Gain (kg)/Lamb, av. / Six-Week Feed/Gain, av.: average of 5 replications; for Average Daily Gain (kg)/Lamb / Six-Week Feed/Gain: replications 1 to 5
Excerpt: To determine the effect of feeding experimental compounds on sheep performance, Wether lambs are randomly allotted to pens in groups of six. The sheep are weighed and permitted feed and water ad libitum. The feed is weighed daily, and uneaten feed from the previous day is collected and weighed. Test lambs receive the same diet as control animals but with the addition of experimental compound at a concentration of either 15 or 60 ppm. At the end of the six-week treatment period, the lambs are again weighed, and total feed is calculated.
In these tests, five replicates of six lambs each per treatment are used.

[4] = Chick tests: growth promotion and feed/gain, 13 days, compound in basal diet; format: in vivo, chicks; settings: for Average 13-day Chick/Gain (g), AV. / Average 13-day Feed/Gain, AV.: average of 4 experiments; for Average 13-day Chick/Gain / Average 13-day Feed/Gain: experiments 1928, 1929, 1930, 1931; for Percent Improvement (13-day chick gain) / Percent Improvement (13-day feed/gain): vs control
Experimental: The following tests were conducted to evaluate the ability of 4,5,6,7-tetrahydrobenzo[b]thien-4-ylurea to promote growth in chicks.
In these tests day-old chicks are placed in heated cages and given feed and water ad libitum. In each test there are 5 male and 5 female chicks per cage and three cages per treatment are used. Treatments consist of a basal diet plus 1,3 or 9 ppm. of test compound. The chicks are weighed at the beginning and end of the experiment. Feed consumption is determined for the experimental period which is 13 days beginning when the chicks are one day old.

**Q.** Which change in vivo at 50 ppm ([1]; Table VI, 50 ppm in diet) does the source give for `NC(=O)NC1CCCc2sccc21` (centres unmarked) [4,5,6,7-tetrahydrobenzo[b]thien-4-ylurea] here?
**A.** 50.1%

**Q.** And the change in vivo at 200 ppm ([1]; Table VI)?
**A.** 134%

**Q.** What about the change in vivo at 400 ppm ([1]; Table VI) of the same molecule?
**A.** 120%

**Q.** What about the “improvement of feed utilization over untreated controls” value ([2]; 11 mg. or 99 mg. implanted, six weeks) of the same molecule?
**A.** about 5%

**Q.** And the “increase in weight gain over untreated controls” value ([2]; 11 mg. or 99 mg. implanted, six weeks after implantation)?
**A.** ~10%

**Q.** What about the “Average 6-Week Feed/Gain per Pen, AV.” value ([2]; 1 drug implant) of the same molecule?
**A.** 7.57

**Q.** And the “Average 6-Week Weight Gain (kg.)/Lamb, AV.” value ([2]; 1 drug implant)?
**A.** 8.86 kg

**Q.** What about the “Average 6-Week Feed/Gain per Pen” value ([2]; 1 drug implant) of the same molecule?
**A.** 6.63 and 6.58 and 7.41 and 8.21 and 8.05 and 8.49

**Q.** What about the “Average 6-Week Weight Gain (kg.)/Lamb” value ([2]; 1 drug implant) of the same molecule?
**A.** 11.25 kg and 9.32 kg and 9.20 kg and 8.63 kg and 8.05 kg and 6.68 kg

**Q.** What about the “Average 6-Week Feed/Gain per Pen, AV.” value ([2]; 9 drug implants) of the same molecule?
**A.** 7.49

**Q.** What about the “Average 6-Week Weight Gain (kg.)/Lamb, AV.” value ([2]; 9 drug implants) of the same molecule?
**A.** 8.69 kg

**Q.** And the “Average 6-Week Feed/Gain per Pen” value ([2]; 9 drug implants)?
**A.** 6.51 and 6.75 and 7.80 and 8.38 and 7.56 and 7.97

**Q.** What about the “Average 6-Week Weight Gain (kg.)/Lamb” value ([2]; 9 drug implants) of the same molecule?
**A.** 10.83 kg and 9.60 kg and 8.75 kg and 7.20 kg and 8.53 kg

**Q.** What about the “Average Daily Gain (kg)/Lamb, av.” value ([3]; 15 ppm in feed) of the same molecule?
**A.** 0.186 kg

**Q.** And the “Six-Week Feed/Gain, av.” value ([3]; 15 ppm in feed)?
**A.** 6.611

**Q.** What about the “Average Daily Gain (kg)/Lamb” value ([3]; 15 ppm in feed) of the same molecule?
**A.** 0.190 kg and 0.187 kg and 0.186 kg and 0.174 kg and 0.195 kg

**Q.** And the “Six-Week Feed/Gain” value ([3]; 15 ppm in feed)?
**A.** 6.777 and 6.174 and 6.158 and 7.626 and 6.319

**Q.** And the “Average Daily Gain (kg)/Lamb, av.” value ([3]; 60 ppm in feed)?
**A.** 0.208 kg

**Q.** And the “Six-Week Feed/Gain, av.” value ([3]; 60 ppm in feed)?
**A.** 6.148

**Q.** What about the “Average Daily Gain (kg)/Lamb” value ([3]; 60 ppm in feed) of the same molecule?
**A.** 0.211 kg and 0.250 kg and 0.200 kg and 0.193 kg and 0.189 kg

**Q.** What about the “Six-Week Feed/Gain” value ([3]; 60 ppm in feed) of the same molecule?
**A.** 6.250 and 5.539 and 6.040 and 6.507 and 6.403

**Q.** And the “Average 13-day Chick/Gain (g), AV.” value ([4]; 1 ppm)?
**A.** 189 g

**Q.** What about the “Average 13-day Feed/Gain, AV.” value ([4]; 1 ppm) of the same molecule?
**A.** 1.46

**Q.** What about the “Average 13-day Chick/Gain” value ([4]; 1 ppm) of the same molecule?
**A.** 181 g and 193 g and 182 g and 200 g

**Q.** What about the “Average 13-day Feed/Gain” value ([4]; 1 ppm) of the same molecule?
**A.** 1.48 and 1.45 and 1.49 and 1.44

**Q.** What about the “Percent Improvement (13-day chick gain)” value ([4]; 1 ppm) of the same molecule?
**A.** 3.3%

**Q.** What about the “Percent Improvement (13-day feed/gain)” value ([4]; 1 ppm) of the same molecule?
**A.** 2.7%

**Q.** And the “Average 13-day Chick/Gain (g), AV.” value ([4]; 3 ppm)?
**A.** 195 g

**Q.** What about the “Average 13-day Feed/Gain, AV.” value ([4]; 3 ppm) of the same molecule?
**A.** 1.43

**Q.** And the “Average 13-day Chick/Gain” value ([4]; 3 ppm)?
**A.** 199 g and 186 g and 197 g and 198 g

**Q.** What about the “Average 13-day Feed/Gain” value ([4]; 3 ppm) of the same molecule?
**A.** 1.47 and 1.40 and 1.44

**Q.** And the “Percent Improvement (13-day chick gain)” value ([4]; 3 ppm)?
**A.** 6.6%

**Q.** What about the “Percent Improvement (13-day feed/gain)” value ([4]; 3 ppm) of the same molecule?
**A.** 4.7%

**Q.** And the “Average 13-day Chick/Gain (g), AV.” value ([4]; 9 ppm)?
**A.** 193 g

**Q.** What about the “Average 13-day Feed/Gain, AV.” value ([4]; 9 ppm) of the same molecule?
**A.** 1.44

**Q.** And the “Average 13-day Chick/Gain” value ([4]; 9 ppm)?
**A.** 190 g and 198 g and 191 g

**Q.** And the “Average 13-day Feed/Gain” value ([4]; 9 ppm)?
**A.** 1.45 and 1.46 and 1.40

**Q.** What about the “Percent Improvement (13-day chick gain)” value ([4]; 9 ppm) of the same molecule?
**A.** 5.5%

**Q.** And the “Percent Improvement (13-day feed/gain)” value ([4]; 9 ppm)?
**A.** 4.0%

**Q.** Which results are given for `NC(=O)NC1CCC(=O)c2sccc21` (centres unmarked) [Compound B, 4,5,6,7-tetrahydro-7-oxobenzo[b]thien-4-ylurea]?
**A.** Average Daily Gain (kg)/Lamb, av. ([3]; 15 ppm in feed): 0.202 kg; Six-Week Feed/Gain, av. ([3]; 15 ppm in feed): 6.216; Average Daily Gain (kg)/Lamb ([3]; 15 ppm in feed): 0.187 kg and 0.208 kg and 0.218 kg and 0.186 kg and 0.210 kg; Six-Week Feed/Gain ([3]; 15 ppm in feed): 6.785 and 6.067 and 5.344 and 6.795 and 6.089; Average Daily Gain (kg)/Lamb, av. ([3]; 60 ppm in feed): 0.208 kg; Six-Week Feed/Gain, av. ([3]; 60 ppm in feed): 5.151; Average Daily Gain (kg)/Lamb ([3]; 60 ppm in feed): 0.216 kg and 0.207 kg and 0.237 kg and 0.189 kg and 0.190 kg; Six-Week Feed/Gain ([3]; 60 ppm in feed): 6.116 and 6.263 and 5.144 and 6.723 and 6.506

**Q.** With `CONC(=O)NC1CCC(O)c2sccc21` (centres unmarked) [Table VIII: O,H,OCH3, 1-methoxy-3-(7-hydroxy-4,5,6,7-tetrahydrobenzo[b]thien-4-yl)urea] as the molecule, how does the change in vivo at 400 ppm ([1]; Table VIII) read?
**A.** 66.7%

**Q.** With `CC(C)NC(=O)NC1CCC(O)c2sccc21` (centres unmarked) [Table VIII: O,H,iso-C3H7] as the molecule, how does the change in vivo at 200 ppm ([1]; Table VIII) read?
**A.** 43.9%

**Q.** With `CNC(=S)NC1CCC(O)c2sccc21` (centres unmarked) [Table VIII: S,H,CH3] as the molecule, how does the change in vivo at 400 ppm ([1]; Table VIII) read?
**A.** 85.1%
